SMILES strings stand for the structures. Values joined by “and” are separate entries in the source; they are usually repeats but may differ in a detail not shown here. Identical values can stand only once. “Also recorded” adds a separate entry of the source.

The subject of one series is human atrial myocytes. Set-up: method as in Lagrutta et al., 2006. The note with it: ref Lagrutta et al., 2006; cited from earlier work.
In series [1] the test system is AM (RA-treated hiPS-CMs, atrial-like). Put plainly: High-throughput membrane potential recording (FluoVolt, FDSS/μCell) in AM. In kind it is cell-based, human. How it is done: (§1) Using a high-throughput screening system (FDSS/μCell), we assessed the drug toxicity of several experimental drugs on hiPS-derived atrial myocytes as well as control hiPS-derived cardiomyocytes. Membrane potential was used as one of the parameters during the assessment.
(§2) After purification, hiPS-derived cardiomyocytes were plated in 96-well plates for downstream drug response assessment using FluoVolt™ Membrane Potential Kit. […] The comparison of variance in the response of drug administration in CT and AM was represented by the percentage of changes based on their baseline values respectively.
(§3) FluoVolt™ Membrane Potential Kit (ThermoFisher […], F10488, Massachusetts, United States) was used to measure membrane potentials. The basic procedure was performed in accordance with the manufacturer’s instructions. […] MP were recorded at excitation and emission stages at wavelengths of 470 and 540 nm, respectively. […] Stock solutions of the test compounds were prepared in 100% DMSO, and serially diluted 1/40 into compound plates for testing (0.5% DMSO was the maximum concentration in all wells). The compounds were automatically pipetted from the compound plate, and 12 μL was loaded in the wells already containing the cells with 48 μL of media. Recording data were analyzed using Waveform Analysis of Cardiomyocyte Software (Ver.1.2.1J, Hamamatsu Photonics K.K.). Data values for a well were averaged from waveforms that arose during 30 s. The beat rate (BR; beats per minute), waveform amplitude (AMP), and duration at 30, 50, and 80% of decay (PWD30, PWD 50, and PWD 80, respectively) were used as evaluation parameters. PWDs were corrected using the Fridericia formula. PWD30-80 was calculated as the difference between PWD80 and PWD30. Each parameter was calculated as percentage change (%) from the value before test compound addition.

For series [2], the system named is cardiac Na+ channel (Nav1.5). The note with it: ref Kramer et al., (2013), Harmer et al., (2011); read-out: IC50 cardiac Nav1.5 current; cited from earlier work.
For another series, the system named is Cav1.2 current. Set-up: method as in Kramer et al., (2013), Harmer et al., (2011). The following applies: ref Kramer et al., (2013), Harmer et al., (2011); cited from earlier work.
The subject of series [3] is CT (control hiPS-CMs without RA, ventricular-like). Put plainly: High-throughput membrane potential recording (FluoVolt, FDSS/μCell) in CT. In kind it is cell-based, human. How it is done: as §1, §2, §3
Series [4] concerns ventricular function and porcine ventricular myocytes. The arrangement: method as in Knobloch et al., 2002. The note with it: ref Knobloch et al., 2002; cited from earlier work.
Another series has as its system atrial refractory period. Set-up: method as in Knobloch et al., 2002. The following applies: ref Knobloch et al., 2002; cited from earlier work.
[5] abbreviates: % change from value before compound addition, 10 min after addition (Bay K 8644: 3 min).
The mark [6] stands for this setting: concentration range as stated in the source.

`CC(C)[C@@H]1CC[C@@H](C)C[C@@H]1P(=O)(c1ccccc1)c1ccccc1` [DPO-1]: the “action potentials in human atrial myocytes” value in the series with human atrial myocytes is listed as “prolongation of action potentials”. In addition, in series [1], the “PWD30cF (in words)” value is “dose-dependent increases; also recorded: prolongation” and the “PWD50cF (in words)” value is “dose-dependent increases; also recorded: prolongation”. The PWD30cF result in series [1] (setting [5]) is “↑”.
In general, IC50 refers to the concentration that gives 50% inhibition. Regarding `O=C1NC(=O)C(c2ccccc2)(c2ccccc2)N1` [Phenytoin], the IC50 was 72.4 µM and 121 µM in series [2]; 21.9 µM with Cav1.2 current. Also, the “concentration at which cessation of beating was elicited” value in series [3] was “higher than 30 μM”. Moreover, the “membrane potential duration (in words)” value in series [3] is “slight shortening”. Besides, the “incidence of arrhythmia-like waveforms: arrest” value (from here on “incidence”) in series [3] (30 μM) is 83%; in series [3] (100 μM) it was 100%; in series [1] (10 μM) it was 50%; in series [1] (30 μM), 67%; in series [1] (100 μM), 100%. For the same compound, the “Falling Slope” value in series [3] (setting [5]) is reported as “↑”. The “Rising Slope” value in series [3] (setting [5]) and in series [1] (setting [5]) was “↓” each time. Moreover, the “falling slope of membrane potential (in words)” value in series [3] (setting [6]) is recorded as “increase”. The “rising slope of membrane potential (in words)” value in series [3] (setting [6]) and in series [1] (setting [6]) was “dose-dependent decrease” throughout.
Regarding `O=C(NCc1ccccc1-c1ccccc1C(=O)NCCc1ccccn1)OCc1ccccc1` [S9947], the “ventricular function and porcine ventricular myocytes” value in series [4] is listed as “did not affect”. In addition, the “amplitude of membrane potential (in words)” value in series [3] is “decrease”. In series [3] (10 μM), the “incidence” value is recorded as 50%. In addition, the “cessation of beating / arrest (cases)” value in series [3] (10 μM, count of cases) is “half”. Further, in series [3] (setting [5]), the “Falling Slope” value is reported as “↑”, the PWD30cF result is on record as “↓”, the PWD80cF entry was “↓” and the “Rising Slope” value was “↓”. In addition, the atrial refractory period entry in the series on atrial refractory period is given as “prolonged”. Moreover, in series [1], the “PWD30cF (in words)” value was “prolongation”, the “PWD50cF (in words)” value is reported as “prolongation” and the “membrane potential duration (in words)” value was “dose-dependent increase”. Besides, the “incidence” value in series [1] (10 μM) was found to be 100%. Moreover, the “cessation of beating / arrest (cases)” value in series [1] (10 μM, count of wells) is “All”. In addition, in series [1] (setting [5]), the PWD30cF entry is on record as “↑” and the PWD80cF entry is given as “↑”.
